According to publication PMC6271697, “Anticancer Activities of Polyynes from the Root Bark of Oplopanax horridus and Their Acetylated Derivatives” (Molecules, 2014):
Several values for one entry are separate records, joined by “and”; a condition that tells them apart may be missing. Identical values can stand only once.

Tests used:
Type in all cases: cell-based, human
A549 cells = test: MTT cell viability assay, A549 cells
Experimental: (§1) The human breast cancer cell lines MCF-7, MDA-MB-231, human hepatocellular liver cell line HepG2 and human lung carcinoma epithelial cells A549 were purchased from American Type Culture Collection (ATCC, Manassas, VA, USA). Normal human hepatic LO2 cells were obtained from the Institute of Cell Biology, Academic Sinica (Shanghai, China). The cells were grown in an atmosphere of 5% CO2 at 37 °C in RPMI 1640 medium supplemented with 10% fetal bovine serum, 100 U/mL penicillin and […] streptomycin.
(§2) The viability of cells was measured by a colorimetric MTT assay. Briefly, 1 × 10^4 cells/well in 96-well microplates were exposed to different concentration of polyynes and their acetylated derivatives respectively for 24 h incubation, following addition of 20 μL MTT solution (4 mg/mL) to each well for another 4 h incubation at 37 °C. Finally, the medium was removed and replaced with 100 μL dimethyl sulfoxide which was added to dissolve the dye crystal presented in cells. The absorbance was recorded at 570 nm using a microplate reader (1420 Multilabel counter victor^3, Perkin-Elmer, Waltham, MA, USA). The results were expressed as ratio of absorbance between treatments and control cells (solvent vehicle set at 100%). Four replicate wells were tested per assay which was repeated three times.

MDA-MB-231 cells [1] = test: JC-1 mitochondrial membrane potential; details: high concentration (OHR-1 15 μM, OHR-2 5 μM, OHR-3 10 μM, OHR-5 15 μM), 24 h
Experimental: The MDA-MB-231 cells were treated with OHR-1, -2, -3 and -5 for 24 h in a humidified atmosphere (37 °C with 5% CO2). The cells were collected and responded in 0.5 mL culture medium with JC-1 dye (1 μg/mL) for 20 min at 37 °C in dark. Fluorescence was monitored by both flow cytometry (BD Biosciences, San Jose, CA, USA) and fluorescence microscope. The Δψm were indicated by the rato of […] fluorescence intensity. The data were expressed as ratio of Δψm between treatments and control cells (solvent vehicle set at 100%).

MDA-MB-231 cells [2] = test: MTT cell viability assay, MDA-MB-231 cells; details: MTT, 24 h incubation; read-out: IC50 MDA-MB-231
Experimental: as §1, §2

MDA-MB-231 cells [3] = test: Cell cycle analysis by PI staining and flow cytometry; details: 24 h
Experimental: Cells were seeded in 6-well tissue culture plates and treated with DMSO control or different concentration of OHR-1, -2, -3 and -5 for 24 h. Then, the cells were harvested and fixed gently with cold 70% ethanol at −20 °C overnight. Finally, the cells were washed with PBS and re-suspended in 300 μL of propidium iodide (PI) stain solution (20 μg/mL PI and 8 μg/mL DNase-free RNase) for 20 min at room temperature in the dark. The cells were analyzed with a flow cytometry and Mod Fit LT 3.0 software (Variety Software House, Topsham, ME, USA). For each measurement, at least 20,000 cells were counted.

HepG2 cells = test: MTT cell viability assay, HepG2 cells; details: MTT, 24 h incubation; read-out: IC50 HepG2
Experimental: as §1, §2

LO2 cells = test: MTT cell viability assay, normal hepatic LO2 cells; details: normal human hepatic cells, MTT, 24 h incubation; read-out: IC50 LO2
Experimental: as §1, §2

MDA-MB-231 cells [4] = test: Hoechst 33342 staining for apoptosis; details: OHR-1 15 μM, OHR-2 5 μM, OHR-3 10 μM, OHR-5 15 μM; 12 h
Experimental: MDA-MB-231 cells were seeded in the flat-bottomed 6-well plates and treated with OHR-1, -2, -3 and -5. Cells treated with solvent vehicle served as controls. In 12 h after treatment, cells were fixed in 4% polyoxymethylene solution for 30 min and then washed with PBS. The fixed cells were incubated with Hoechst 33342 for 15 min at room temperature in the dark and then washed with PBS twice, which were finally observed under a fluorescence microscope (Convert Fluorescence Microsope Axiovert 200, HAL 100, HBO 100, Carl Zeiss MicroImaging Co., Ltd., Oberkochen, Germany) at a magnification of ×400.

MCF-7 cells = test: MTT cell viability assay, MCF-7 cells; details: MTT, 24 h incubation; read-out: IC50 MCF-7
Experimental: as §1, §2

(3S,8S,Z)-3-Hydroxyheptadeca-9-en-4,6-diyn-8-yl acetate [OHR-3]
IC50 (A549 cells; MTT, 24 h incubation, read-out: IC50 A549): 30.1 µM and 31.4 µM | A549 cell growth inhibited (A549 cells; at 60 µM, p < 0.01): 90.8% | effect on mitochondrial membrane potential Δψm (JC-1) (MDA-MB-231 cells [1]): decreasing the Δψm | IC50 (MDA-MB-231 cells [2]): 6.6 ± 0.8 µM | G2/M arrest rate at low concentration (MDA-MB-231 cells [3]; OHR-1 7.5 μM, OHR-2 2.5 μM, OHR-3 5 μM, OHR-5 7.5 μM): 24.2% ± 2.9% | G2/M arrest rate at high concentration (MDA-MB-231 cells [3]; OHR-1 15 μM, OHR-2 5 μM, OHR-3 10 μM, OHR-5 15 μM): 25.6% ± 7.5% | IC50 (HepG2 cells): 31.5 ± 2.1 µM | IC50 (LO2 cells): 31.5 ± 4 µM | induction of apoptosis (Hoechst staining) (MDA-MB-231 cells [4]): induce obvious apoptosis | IC50 (MCF-7 cells): 25.8 ± 5.8 µM
